Data set [1] relates to SOD1 G93A mice. Put plainly: Discontinuous dosing of DFMO in SOD-1 (G93A) mouse model of ALS: survival and neurological score. Format: in vivo. The source says:
(§1) Survival in the mouse is copy dependent.
(§2) Controls animals were given water as vehicle.
Results are shown in FIGS. 2 and 3 and described below.

For data set [2], the system named is SOD1 G93A mice. Put plainly: Continuous dosing of DFMO in SOD-1 (G93A) mouse model of ALS: survival and neurological score. Format: in vivo. The method, then: as §1, §2
During this study, DFMO was delivered chronically at a dose of 3200 mg/Kg/day in drinking water […] without any drug holiday until death according to the methods described in Example 1. Results are shown in FIGS. 4–9 and described below.

Data set [3] has as its system SOD1 G93A mice. Kind of data set: Ongoing IP injection study of DFMO in SOD1 G93A mice. It counts as in vivo, mouse. The following applies: 3200 mg/kg. The source says:
Studies are currently underway to analyze polyamines in male vs. female mSOD1 mice and wild-type mice. While positive effects are seen in male mice, the effect is less reliable at current doses. Differences in polyamine synthesis and regulation exist between the sexes and may account for the different observed effects. […] Higher plasma concentration of DFMO can be achieved by systemic delivery as opposed to oral delivery.

The test system of data set [4] is SOD1 G93A mice. Kind of data set: DENSPM in SOD-1 (G93A) mouse model of ALS: survival and neurological score. Format: in vivo. The note with it: female mice.
Text: as §1
Results are shown in FIGS. 12 and 13 and described below.

The subject of data set [5] is cellular concentrations of putrescine, spermidine and spermine. The following applies: cited from earlier work.
The subject of data set [6] is patients with advanced non-small cell lung cancer. The following applies: Phase I; cited from earlier work.
For data set [7], the system named is SOD1 G93A mice. The text has this: (vi) Neurological Scoring: Neurological score of each limb was monitored and recorded according to a defined 4-point scale defined below: […]
[8] abbreviates: 24 mg/kg/day IP twice daily till death, FIG. 12.

The text below walks through data of patent US7030126B2, “Use of polyamine analogs for amyotrophic lateral sclerosis” (ALS Therapy Development Foundation, Inc., priority 2001, dated 2006).

Like-named read-outs stand apart in the source and are kept apart here.

Consider `NCCCC(N)(C(=O)O)C(F)F` (racemic) [DFMO, 2-(Difuoromethyl)-DL-ornithine], for which the onset of disease entry in the data set on SOD1 G93A mice [1] (3200 mg/Kg/day in drinking water, 21 days on, 7 day drug holiday) is on record as “delays the onset of disease”; in the data set with SOD1 G93A mice [2] (3200 mg/Kg/day in drinking water, no drug holiday), “delays the onset of disease”. Further, in the data set with SOD1 G93A mice [1] (3200 mg/Kg/day in drinking water, 21 days on, 7 day drug holiday, FIG. 2), the survival result is reported as “extends the survival”. Further, the “neurological score analysis, effect” value with SOD1 G93A mice [1] (combined male and female results, discontinuous delivery) is “No effect”; in the data set on SOD1 G93A mice [1] (female mice, during drug delivery period, discontinuous delivery, FIG. 3) it was “protective”; with SOD1 G93A mice [1] (male mice, discontinuous delivery) it was “No effect”; in the data set on SOD1 G93A mice [2] (combined male and female, continuous delivery, FIG. 5), “protective”; in the data set on SOD1 G93A mice [2] (female mice, continuous delivery, FIG. 9), “protective”; in the data set on SOD1 G93A mice [2] (male mice, continuous delivery, FIG. 7) it was “protective”. Besides, the “deaths of animals in the treatment group that occurred during the drug holiday or a few days immediately succeeding the holiday” value in the data set with SOD1 G93A mice [1] (female mice, 3200 mg/Kg/day in drinking water, 21 days on, 7 day drug holiday, FIG. 2) was 70%. In the data set with SOD1 G93A mice [1] (female mice, discontinuous delivery, FIG. 3), this compound showed a total female effect of 3.5%. The “life span / survival” value in the data set on SOD1 G93A mice [2] (3200 mg/Kg/day in drinking water, no drug holiday, FIGS. 4, 6 and 8) is given as “extended the life span”. Moreover, the effect with SOD1 G93A mice [2] (female mice, continuous delivery) is given as 11.48%; with SOD1 G93A mice [2] (male mice, continuous delivery), 8.21%. Besides, in the data set with SOD1 G93A mice [2] (male and female combined, continuous delivery, Cox proportional hazard, litter effect as frailty term, p=0.02), the total combined effect came out at 9.69%. Further, the “trend in male mice” value in the data set on SOD1 G93A mice [3] was “positive male trend”.
Consider `CCNCCCNCCCNCCCNCC` [DENSPM, N(1),N(11)-diethylnorspermine], for which, in the data set with SOD1 G93A mice [4] (setting [8]), the onset of disease result was “delays the onset of disease” and the survival entry was “extends the survival”. The “neurological score analysis, effect” value in the data set on SOD1 G93A mice [4] (24 mg/kg/day IP twice daily, FIG. 13) is “protective”. In addition, in data set [5], the “cellular concentrations of putrescine, spermidine and spermine” value is reported as “reduce”. Further, the toxicity in patients entry in data set [6] is recorded as “minimal toxicity”.
As to `NC(=O)NO` [hydroxyurea], the “onset of ALS disease” value in the data set on SOD1 G93A mice [7] (250 mg/Kg/day IP once daily, day 50 to day 110) was “delays the onset of ALS disease”. Moreover, the “life span / survival” value in the data set with SOD1 G93A mice [7] (female mice, 250 mg/Kg/day IP once daily, day 50 to day 110, FIG. 10) was “extended the life span”. The “neurological score analysis, effect” value in the data set with SOD1 G93A mice [7] (female mice, 250 mg/Kg/day IP, FIG. 11) is on record as “protective”.
